The values below come from patent US4224371A, “Sodium 3-acetoxylmethyl-7-[2-(2-amino-4-thiazolyl)-2-methoxyimino-acetamido]-ce ph-3-eme-4-carboxylate” (priority 1977, dated 1980).

The nature of data set [1]: Stability test, percent of activity remaining on storage. The data set is classed as physicochemical. To be noted: nonsterile air; for % of activity after storage: time 0, closed flask. The procedure: Product A was placed in a flask containing nonsterile air and it was closed with a rubber stopper. The flask was stored at the temperatures for the times indicated in the following table and the percent of activity remaining was determined.

Data set [2] deals with Klebsiella Pneumoniae COc 229. Kind of data set: In vitro antibacterial activity, liquid medium dilution (MIC). The data set is classed as cell-based. The note with it: 37° C., read-out: minimum inhibiting concentration (MIC). The procedure: (§1) The method used was a dilution of a liquid medium where a series of tubes received the same quantity of a sterile nutritive media and increasing doses of the test compounds were placed therein. Then each tube was seeded with a bacterial strain and was incubated for 24 to 48 hours at 37° C. in an oven. The increasing inhibition was determined by transillumination to determine the minimum inhibiting concentration (MIC in μg/ml) and the results are reported in the following Tables.
(§2) Product A is the crystalline D form of the syn isomer of sodium 3-acetoxymethyl-7-[2-(2-amino-4-thiazolyl)-2-methoxyimino-acetamido]-ceph- 3-eme-4-carboxylate.

The test system of a further data set is Proteus Mirabilis 9048. The description is as above. The note with it: 37° C., read-out: minimum inhibiting concentration (MIC). The data set is classed as cell-based. The procedure:
as §1, §2

Another data set concerns Proteus Vulgaris Co 1. The description is as above. The data set is classed as cell-based. To be noted: 37° C., read-out: minimum inhibiting concentration (MIC). The procedure: as §1, §2
In a further data set the test system is Proteus Mirabilis 3477. The data set is described as above. The data set is classed as cell-based. To be noted: 37° C., read-out: minimum inhibiting concentration (MIC). The procedure: as §1, §2
The subject of a further data set is Proteus Vulgaris Du 27. The description is as above. The data set is classed as cell-based. To be noted: 37° C., read-out: minimum inhibiting concentration (MIC). The procedure:
as §1, §2

Data set [3] concerns Staphylococcus aureus I H 005. Described as above. The data set is classed as cell-based. To be noted: 37° C., read-out: minimum inhibiting concentration (MIC). The procedure:
as §1, §2

Data set [4] relates to Staphylococcus aureus I H 47. Described as above. The data set is classed as cell-based. To be noted: 37° C., read-out: minimum inhibiting concentration (MIC). The procedure: as §1, §2
Data set [5] concerns Klebsiella Pneumoniae COc 238. The data set is described as above. The data set is classed as cell-based. To be noted: 37° C., read-out: minimum inhibiting concentration (MIC). The procedure: as §1, §2
In data set [6] the test system is Staphylococcus aureus I H 41. Described as above. The data set is classed as cell-based. The note with it: 37° C., read-out: minimum inhibiting concentration (MIC). The procedure: as §1, §2
The subject of data set [7] is Salmonella typhimurium 6478. The data set is described as above. The note with it: Salmonella enterica, 37° C., read-out: minimum inhibiting concentration (MIC). The data set is classed as cell-based. The procedure:
as §1, §2

The test system of data set [8] is Escherichia Coli T 55 4376. The description is as above. The data set is classed as cell-based. The note with it: 37° C., read-out: minimum inhibiting concentration (MIC). The procedure: as §1, §2
For the next data set, the system named is Proteus Vulgaris Co 4. The data set is described as above. The data set is classed as cell-based. To be noted: 37° C., read-out: minimum inhibiting concentration (MIC). The procedure: as §1, §2
In another data set the test system is Proteus Mirabilis 1816. The description is as above. The note with it: 37° C., read-out: minimum inhibiting concentration (MIC). The data set is classed as cell-based. The procedure: as §1, §2
Data set [9] has as its system Escherichia Coli T 55 4076. Described as above. The data set is classed as cell-based. To be noted: 37° C., read-out: minimum inhibiting concentration (MIC). The procedure:
as §1, §2

The subject of another data set is Escherichia Coli 7881. Described as above. The data set is classed as cell-based. The note with it: 37° C., read-out: minimum inhibiting concentration (MIC). The procedure: as §1, §2
Data set [10] relates to Staphylococcus aureus I H 38. The description is as above. The data set is classed as cell-based. To be noted: 37° C., read-out: minimum inhibiting concentration (MIC). The procedure: as §1, §2
A further data set concerns Escherichia Coli A 223. The data set is described as above. The data set is classed as cell-based. The note with it: 37° C., read-out: minimum inhibiting concentration (MIC). The procedure: as §1, §2
Data set [11] can be described thus: Affinity to atmospheric humidity / hygroscopicity. The note with it: solid. The data set is classed as physicochemical.

Each structure is given as a SMILES string. Where a name gives a salt, the structure may show the parent alone. Read-outs that look alike come from different tables or passages of the source.

For the molecule `CO/N=C(\C(=O)NC1C(=O)N2C(C(=O)O)=C(COC(C)=O)CSC12)c1csc(N)n1` (stereo not drawn) [Product A, sodium 3-acetoxymethyl-7-[2-(2-amino-4-thiazolyl)-2-methoxyimino-acetamido]-ceph-3-eme-4-carboxylate], the remaining at 1080 h in data set [1] (50° C., 1.5 months, closed flask, read-out: % of activity after storage) turned out to be 92.5%. Further, the remaining at 2160 h in [1] (50° C., 3 months, closed flask, read-out: % of activity after storage) amounted to 92%. For the same molecule, the “% of activity after storage” value in [1] (50° C.) and in [1] (80° C.) was 97% each time. In addition, in [1] (80° C., 2 weeks, closed flask, read-out: % of activity after storage), the remaining at 336 h worked out at 81.5%. Also, the remaining at 160 h in [1] (80° C., 160 hours, closed flask, read-out: % of activity after storage) came to 89.5%. For the same molecule, the MIC in [2] (24 H) is 0.1 µg/mL; in data set [2] (48 H), 0.1 µg/mL; in the data set on Proteus Mirabilis 9048 (24 H), 0.02 µg/mL; in the data set on Proteus Mirabilis 9048 (48 H), 0.02 µg/mL; with Proteus Vulgaris Co 1 (24 H), 0.2 µg/mL; with Proteus Vulgaris Co 1 (48 H), 0.4 µg/mL. Also, the MIC is 0.05 µg/mL in the data set on Proteus Mirabilis 3477 (24 H); 0.05 µg/mL in the data set with Proteus Mirabilis 3477 (48 H); at most 0.02 µg/mL in the data set on Proteus Vulgaris Du 27 (24 H); at most 0.02 µg/mL in the data set on Proteus Vulgaris Du 27 (48 H); 2 µg/mL in data set [3] (IH005, 24 H); 3 µg/mL in data set [3] (IH005, 48 H). Also, the MIC in data set [4] (IH47, 24 H) was found to be 2 µg/mL; in [4] (IH47, 48 H), 2 µg/mL; in [5] (24 H) it was 0.2 µg/mL; in data set [5] (48 H), 0.2 µg/mL; in data set [6] (IH41, 24 H) it was 1 µg/mL; in data set [6] (IH41, 48 H) it was 2 µg/mL. Further, the MIC amounted to 0.1 µg/mL in data set [7] (24 H); 0.1 µg/mL in [7] (48 H); 0.1 µg/mL in data set [8] (COLIT554376, 24 H); 0.1 µg/mL in data set [8] (COLIT554376, 48 H); 0.6 µg/mL with Proteus Vulgaris Co 4 (24 H); 0.6 µg/mL in the data set on Proteus Vulgaris Co 4 (48 H). The MIC with Proteus Mirabilis 1816 (24 H) is 0.05 µg/mL; with Proteus Mirabilis 1816 (48 H) it was 0.05 µg/mL; in [9] (COLIT554076, 24 H) it was 0.05 µg/mL; in data set [9] (COLIT554076, 48 H), 0.05 µg/mL; in the data set on Escherichia Coli 7881 (COLI7881, 24 H), 0.1 µg/mL; in the data set on Escherichia Coli 7881 (COLI7881, 48 H), 0.1 µg/mL. Further, the MIC in [10] (IH38, 24 H) turned out to be 1 µg/mL; in [10] (IH38, 48 H), 2 µg/mL; with Escherichia Coli A 223 (COLIA223, 24 H), 0.1 µg/mL; in the data set with Escherichia Coli A 223 (COLIA223, 48 H), 0.1 µg/mL. Further, the “affinity to atmospheric humidity / hygroscopicity” value in data set [11] (listed as crystalline D form) is recorded as “low affinity to atmospheric humidity”.
Consider `CO/N=C(\C(=O)NC1C(=O)N2C(C(=O)O)=C(COC(C)=O)CSC12)c1csc(N)n1` (stereo not drawn) [sodium salt not containing methanol, sodium 3-acetoxymethyl-7-[2-(2-amino-4-thiazolyl)-2-methoxyimino-acetamido]-ceph-3-eme-4-carboxylate], for which, in [11], the “affinity to atmospheric humidity / hygroscopicity” value is listed as “hygroscopic”.
